One data set has as its system HBV. The experiment in a line: HBV DNA content in the supernatant of cell culture (real-time PCR). The format is cell-based, hepatitis B virus (HBV). Conditions: Hepatitis B virus, HepG2.2.15, 192 h, inhibition of HBV DNA replication, HepG2.2.15 supernatant, 8 days. How it is done:
(§1) Human hepatoblastoma cell line HepG2.2.15 stably transfected with full-length HBV (provided by Shanghai Institute of Materia Medica, Chinese Academy of Sciences)
(§2) HepG2.2.15 cells were cultured and passaged according to conventional methods. DMEM containing 10% (v/v) bovine serum and the selective antibiotic G418 was used as a medium, the cells were cultured in an incubator at 37° C. under 5% CO2 for 8 days (the medium was exchanged on the 4th day).
(§3) The test compounds were formulated with DMSO into a 40 mM stock solution, which was then prepared into a solution at the defined highest concentration using a DMEM medium containing 10% Hyclone™ Fetal Bovine Serum, followed by diluting the same; the positive drug was lamivudine, which was also prepared into a solution at the defined concentration with the DMEM medium containing 10% Hyclone™ Fetal Bovine Serum.
HepG2.2.15 cells were treated with compounds at different concentrations for 8 days (the medium was exchanged on the 4th day), and the supernatant was aspirated, and the HBV DNA contained in the mature virus particles in the supernatant was quantitated by using a real-time PCR method.
1) The supernatant DNA from a 96-well plate, 200 μl/well, was collected, wherein the contents in the duplicate wells were collected into a same EP tube, and centrifuged at 4000 rcf for 5 min, and the supernatant was collected;
2) 200 μl of the supernatant was added into a 1.5 ml EP tube, added with 20 μl of proteinase K and 200 μl of Buffer AL (Qiagen, DNeasy® Blood & Tissue Kit), vortexed to be mixed thoroughly, and incubated at 56° C. for 10 min;
3) 200 μl of ethanol was added and vortexed to be mixed thoroughly;
4) all the liquid obtained from step 3) was added into a DNeasy Mini spin column (Qiagen, DNeasy® Blood & Tissue Kit) placed in a 2 ml waste liquid collection tube, and centrifuged at 6000 rcf for 1 min, and the supernatant was discarded;
5) the DNeasy Mini spin column was placed in a new 2 ml waste liquid collection tube, added with 500 μl of Buffer AW1 (Qiagen, DNeasy® Blood & Tissue Kit), and centrifuged at 6000 rcf for 1 min, and the supernatant was discarded;
6) the DNeasy Mini spin column was placed in a new 2 ml waste liquid collection tube, added with 500 μl of Buffer AW2, (Qiagen, DNeasy® Blood & Tissue Kit), and centrifuged at 20000 rcf for 3 min, and the supernatant was discarded;
7) the DNeasy Mini spin column was placed in anew 1.5 ml EP tube, 50 μl of Buffer AE (Qiagen, DNeasy® Blood & Tissue Kit) was pipetted and directly applied onto the membrane of the DNeasy Mini spin column, which was then left at room temperature for 5 min, and centrifuged at 6000 rcf for 1 min to elute the DNA from the membrane, the DNeasy Mini spin column was discarded, and the DNA sample was collected and stored at −20° C.
1) Standard curve: 1e^7-1e^4 IU/ml, the sample amount was 1 μl, a blank well was set so as to check whether the reaction system is polluted or not;
2) 1 μl of a DNA sample was added in sequence;
3) Addition of enzyme and reaction buffer: two tubes of the reaction solution were first added into the enzyme, mixed well and centrifuged slightly, placed on ice, added with the sample, followed by addition of 19 μl of the enzyme reaction solution, wherein, during the addition, the DNA sample should be sure of not being touched to cause contamination;
4) the sample was sealed with a sealing film and centrifuged;
Stage 2: 10 cycles • Step 1: 93° C., 45 s • Step 2: 55° C., 1 min Stage 3: 45 cycles • Step 1: 93° C., 30 s • Step 2: 55° C., 45 s
Detection: data were collected after completing the step 2 (55° C., 45 s) of the stage 3.
The experimental data were processed by using the Origin software and IC50 was calculated.
Background: Real-time PCR tracks product formation cycle by cycle.

The nature of data set [1]: MTT assay for cytotoxicity. In kind it is cell-based, Human. As to conditions: human, HepG2.2.15 cells, half (50%) lethal concentration. How it is done:
as §1, §2, §3
HepG2.2.15 cells were seeded at 5×10^3 cells/well in a 96-well plate, and cultured for eight days in the presence of the compounds according to the above method, and then 200 μl of the supernatant was taken out, followed by addition of the MTT solution. After 4 hours of culture, a lysate was added. After 12 hours of culture, the OD570 was measured on a microplate reader. By comparing with the absorbance of the control well, the percentage of viable cells was calculated, and CC50, the concentration required for the reduction of cell viability by 50%, was calculated.
(In general: Tetrazolium dyes change colour on reduction, which living cells bring about.)

The values that follow come from patent US11040952B2, “Phthalazinone compound, method for preparation thereof, pharmaceutical composition thereof, and use thereof” (SHANGHAI INSTITUTE OF MATERIA MEDICA, CHINESE ACADEMY OF …, priority 2017, dated 2021).

In the case of `Nc1ccc(-c2nn(Cc3ccc(Cl)cc3)c(=O)c3ccccc23)cn1` [Compound I-5], it took 1500 nM to reach half-maximal inhibition with HBV (IC50). In data set [1], the CC50 (as a rule, the concentration that lowers cell viability or growth by half) at 8 days was 51800 nM.
The corresponding values for `CCOCCCNc1nc(F)c(-c2nn(Cc3ccc(C#N)cc3)c(=O)c3ccccc23)cc1Cl` [IV-44] are below 97.7 nM and 54800 nM.
As to `Cc1ccc(-c2nn(Cc3ccc(Cl)cc3)c(=O)c3cc(F)c(F)cc23)c(F)n1` [Compound V-2], the IC50 (in general, the point on the concentration scale where inhibition reaches its midpoint) in the data set on HBV is 300 nM. The molecule further yielded a CC50 at 8 days in data set [1] above 100000 nM.
The corresponding values for `COC(=O)CCNc1nc(F)c(-c2nn(Cc3ccc(C#N)cc3)c(=O)c3ccccc23)cc1Cl` [IV-73] are 215 nM and above 100000 nM.
`CN(C)CCNc1ccc(-c2nn(Cc3ccc(C#N)cc3)c(=O)c3ccccc23)c(F)n1` [IV-14]: it took 1500 nM to reach half-maximal inhibition in the data set on HBV (IC50). The same molecule registered a CC50 at 8 days in data set [1] above 100000 nM.
For `Cc1ccc(-c2nn(Cc3ccc(Cl)cc3)c(=O)c3cc(C)c(C)cc23)c(F)n1` [Compound V-4], the IC50 in the data set on HBV stood at 1300 nM. Besides, the CC50 at 8 days in data set [1] was above 100000 nM.
The corresponding values for `N#Cc1ccc(Cn2nc(-c3cc(Cl)c(NCCCC(=O)O)nc3F)c3ccccc3c2=O)cc1` [IV-52] are 84.5 nM and above 100000 nM.
The corresponding values for `CNc1ccc(-c2nn(Cc3ccc(C#N)cc3)c(=O)c3ccccc23)c(F)n1` [IV-8] are 900 nM and above 100000 nM.
Take `COc1ncc(-c2nn(Cc3ccc(Cl)cc3)c(=O)c3ccccc23)cn1` [II-3]: the 50% inhibitory concentration (IC50) in the data set with HBV worked out at 8800 nM. Further, the CC50 at 8 days in data set [1] was above 100000 nM.
The corresponding values for `N#Cc1ccc(Cn2nc(-c3ccc(NCCCO)nc3F)c3ccccc3c2=O)cc1` [IV-66] are 180 nM and 94000 nM.
Taken in the same sequence, the figures for `COCCCNc1nc(F)c(-c2nn(Cc3ccc(C#N)cc3)c(=O)c3ccccc23)cc1Cl` [IV-33] were below 97.7 nM and 181000 nM.
The corresponding values for `N#Cc1ccc(Cn2nc(-c3ccc(CN4CCOCC4)nc3F)c3ccccc3c2=O)cc1` [IV-24] are 350 nM and above 100000 nM.
The molecule `O=c1c2ccccc2c(-c2c(F)cc(F)nc2F)nn1Cc1ccc(Cl)cc1` [Compound I-23] gave an IC50 with HBV of 600 nM. In data set [1], this molecule yielded a CC50 at 8 days above 100000 nM.
The molecule `Cc1ccc(-c2nn(Cc3ccc(Cl)cc3)c(=O)c3ccc(C(F)(F)F)cc23)c(F)n1` [Compound V-8] came in with an IC50 with HBV of 1100 nM. The molecule also showed a CC50 at 8 days in data set [1] above 100000 nM.
Taken in the same sequence, the figures for `[2H]C([2H])(c1ccc(C#N)cc1)n1nc(-c2ccc(F)nc2F)c2ccccc2c1=O` [IV-18] were 210 nM and above 100000 nM.
Regarding `[2H]C([2H])([2H])OC([2H])([2H])c1ccc(-c2nn(Cc3ccc(Cl)cc3)c(=O)c3ccccc23)c(F)n1` [Compound I-36], the IC50 in the data set with HBV turned out to be 1500 nM. Besides, the half-maximal cytotoxic concentration (CC50) at 8 days in data set [1] worked out at 89000 nM.
Taken in the same sequence, the figures for `COCc1ccc(-c2nn(Cc3ccc(C#N)cc3)c(=O)c3ccccc23)c(F)n1` [IV-22] were 3500 nM and above 100000 nM.
Taken in the same sequence, the figures for `[2H]C([2H])(c1ccc(Cl)cc1)n1nc(-c2ccc(C)nc2F)c2ccccc2c1=O` [Compound I-25] were 1300 nM and above 100000 nM.
The corresponding values for `N#Cc1ccc(Cn2nc(-c3ccc(NCC4CCOCC4)nc3F)c3ccccc3c2=O)cc1` [IV-25] are 1200 nM and 54100 nM.
Take `CC(=O)OCc1ccc(-c2nn(Cc3ccc(Cl)cc3)c(=O)c3ccccc23)c(F)n1` [Compound I-28]: the IC50 in the data set on HBV turned out to be 1000 nM. Further, the CC50 at 8 days in data set [1] was found to be 73100 nM.
The corresponding values for `COCc1ccc(-c2nn(Cc3ccc(Cl)cc3)c(=O)c3ccccc23)c(F)n1` [Compound I-32] are 1000 nM and above 100000 nM.
Consider `CCOCCCNc1ccc(-c2nn(Cc3ccc(C#N)cc3)c(=O)c3ccccc23)c(F)n1` [IV-43], for which it took 288 nM to reach half-maximal inhibition with HBV (IC50). In data set [1], it took 89800 nM to reach half-maximal cytotoxicity (CC50 at 8 days).
The corresponding values for `COCCNc1nc(F)c(-c2nn(Cc3ccc(Cl)cc3)c(=O)c3ccccc23)cc1Cl` [IV-29] are 43.9 nM and 26600 nM.
Taken in the same sequence, the figures for `N#Cc1ccc(Cn2nc(-c3cc(Cl)c(NCC(O)CO)nc3F)c3ccccc3c2=O)cc1` (stereo not shown) [IV-80] were below 98 nM and above 100000 nM.
The corresponding values for `N#Cc1ccc(Cn2nc(-c3cc(O)cnc3F)c3ccccc3c2=O)cc1` [Compound I-43] are 1570 nM and above 100000 nM.
`Cc1ccc(-c2nn(Cc3ccc(C#N)cc3)c(=O)c3ccccc23)c(F)n1` [IV-6] came in with an IC50 in the data set with HBV of 800 nM. Besides, the half-maximal cytotoxic concentration (CC50) at 8 days in data set [1] is above 100000 nM.
The corresponding values for `COC(=O)CCNc1ccc(-c2nn(Cc3ccc(C#N)cc3)c(=O)c3ccccc23)c(F)n1` [IV-72] are 1720 nM and above 100000 nM.
On to `CN(C)CCNc1ccc(-c2nn(Cc3ccc(Cl)cc3)c(=O)c3ccccc23)c(F)n1` [Compound I-21], for which the IC50 with HBV was 1600 nM. For the same molecule, the CC50 at 8 days in data set [1] is above 100000 nM.
Taken in the same sequence, the figures for `CC(C)(C)OC(=O)CCCNc1nc(F)c(-c2nn(Cc3ccc(C#N)cc3)c(=O)c3ccccc23)cc1Cl` [IV-51] were 92 nM and 89900 nM.
Taken in the same sequence, the figures for `O=c1c2ccccc2c(-c2cccnc2)nn1Cc1ccc(Cl)cc1` [Compound I-2] were 3100 nM and 98700 nM.
Taken in the same sequence, the figures for `COC(=O)CCCNc1nc(F)c(-c2nn(Cc3ccc(C#N)cc3)c(=O)c3ccccc23)cc1Cl` [IV-65] were 116 nM and above 100000 nM.
As to `N#Cc1ccc(Cn2nc(-c3cc(Cl)c(NCCC(F)(F)F)nc3F)c3ccccc3c2=O)cc1` [IV-84], the IC50 in the data set with HBV is below 98 nM. The molecule further showed a CC50 at 8 days in data set [1] of 63500 nM.
The corresponding values for `Cc1ccc(-c2nn(Cc3ccc(C#N)cc3)c(=O)c3cc(F)c(F)cc23)c(F)n1` [Compound V-10] are 700 nM and 47900 nM.
In the data set on HBV, `CN(C)c1ccc(-c2nn(Cc3ccc(Cl)cc3)c(=O)c3ccccc23)c(F)n1` [Compound I-13] returned a half-inhibitory concentration (IC50) of 1200 nM. This molecule returned a cytotoxic concentration (CC50) at 8 days in data set [1] of 32700 nM.
Taken in the same sequence, the figures for `CN(C)Cc1ccc(-c2nn(Cc3ccc(Cl)cc3)c(=O)c3ccccc23)c(F)n1` [Compound I-33] were 1300 nM and above 100000 nM.
The corresponding values for `N#Cc1ccc(Cn2nc(-c3ccc(NC4CC4)nc3F)c3ccccc3c2=O)cc1` [IV-13] are 3800 nM and 78500 nM.
Taken in the same sequence, the figures for `[2H]C([2H])(c1ccc(Cl)cc1)n1nc(-c2ccc(F)nc2F)c2ccccc2c1=O` [Compound I-27] were 300 nM and above 100000 nM.
In the data set on HBV, `COCCNc1ccc(-c2nn(Cc3ccc(C#N)cc3)c(=O)c3ccccc23)c(F)n1` [IV-26] came in with an IC50 of 430 nM. Besides, in data set [1], the half-maximal cytotoxic concentration (CC50) at 8 days is above 100000 nM.
In the data set with HBV, `CCOCCNc1nc(F)c(-c2nn(Cc3ccc(C#N)cc3)c(=O)c3ccccc23)cc1Cl` [IV-42] gave an IC50 of 292 nM. The molecule further came in with a CC50 at 8 days in data set [1] of 29800 nM.
As for `N#Cc1ccc(Cn2nc(-c3ccc(CO)nc3F)c3ccccc3c2=O)cc1` [IV-20], the IC50 in the data set with HBV turned out to be 300 nM. In data set [1], this molecule had a CC50 at 8 days above 100000 nM.
For the molecule `CC(C)(C)OC(=O)NCCCCNc1nc(F)c(-c2nn(Cc3ccc(C#N)cc3)c(=O)c3ccccc23)cc1Cl` [IV-46], in the data set with HBV, half-maximal inhibition (IC50) required 14 nM. In data set [1], this molecule yielded a CC50 at 8 days above 100000 nM.
